{"source": "paper PMC12058896", "about": "“Potent antimicrobial activity of hydrogel loaded with the antimicrobial peptide, D-Bac8c^2,5 Leu, against monospecies and polymicrobial biofilms of Staphylococcus aureus and Pseudomonas aeruginosa” (Frontiers in Microbiology, 2025)", "key": {"[1]": {"system": "monospecies and polymicrobial biofilms of Staphylococcus aureus and Pseudomonas aeruginosa", "assay": "Static biofilm assays", "type": "cell-based", "protocol": "Biofilms were formed under static conditions using flat 96-well polystyrene plates as described previously with few modifications ([[…] al., 2018]). Briefly, overnight cultures in BHI were washed and diluted 1:200 in fresh Bolton Broth media supplemented with 50% bovine heparin plasma, and 5% laked horse blood. From this suspension, 100 μL was used to inoculate the microtiter plate wells prior to static incubation at 37°C for 24 h, 3 days and 5 days. The media in each well was changed daily during prolonged incubation periods (3 and 5 days). […] After incubation with D-Bac8c^2,5 Leu, biofilms were washed twice with PBS and biofilm assessment was performed. For the polymicrobial biofilms, a bacterial solution ratio 1:1 of S. aureus and P. aeruginosa at 1 × 10^5 CFU/mL each was used to inoculate the wells. In each assay, inoculated medium without antimicrobials and uninoculated medium served as growth and sterility controls, respectively. […] Viability of biofilm cells after treatment was measured using resazurin-conversion assay as previously described ([Hogan et al., 2016]) (Sigma-Aldrich, Ireland). […] Fluorescence intensity was detected at excitation of 544 nm and emission of 590 nm using a fluorimeter, Perkin Elmer 2030 Multilabeled Reader, Victor 3X. […] After overnight incubation at 37°C, CFU were counted and results were expressed as log10CFU/mL."}, "[2]": {"system": "monospecies and polymicrobial biofilms of S. aureus and P. aeruginosa", "assay": "Duckworth biofilm flow device (dynamic biofilm)", "type": "cell-based", "conditions": "biofilms grown 1 and 5 days under shear flow in SWF; 256 μg/mL for 6 h", "protocol": "The Duckworth biofilm flow device was set-up and run following the method described by [Duckworth et al. (2018)]. Twelve disks of agar at 1.5% (w/v) concentration were cut using a 10 mm French press punch and placed into designated wells in the flow device. Cellulose filter (13 mm, 0.22 μm, Merck Millipore, Ireland) was placed on top of each agar disk, and was inoculated with 10 μL of the bacterial inoculum. The device was placed in an incubator at 37°C while a continuous flow of SWF was pumped into the device at a flow rate of 0.322 mL/min for 24 h or 5 days using a peristaltic pump (Supplementary Figure S2). Subsequently, topical treatment with D-Bac8c^2,5 Leu was introduced and allowed to run for a further 6 h. The biofilm formed on the cellulose filters were collected and suspended in 1 mL PBS. Colony counting was performed as described above. The Duckworth biofilm flow device was prepared and run as described above with slight modification. A solution of agarose dissolved in SWF (0.3 g in 20 mL), mixed with bacterial cultures at 10^8 CFU/mL and then supplemented with 3% FBS and 0.15% collagen (Merck, Ireland) was allowed to solidify at room temperature and then 12 disks of that was cut using a 10 mm French press punch. The disks were then placed into designated wells and experiments run as previously described. […]"}, "HaCaT": {"system": "HaCaT", "assay": "MTT cell viability", "type": "cell-based, human", "conditions": "24 h, 37°C, 5% CO2, average of three independent experiments"}, "THP-1": {"system": "THP-1", "type": "cell-based, human", "conditions": "24 h", "protocol": "Sigma-Aldrich, Ireland). […] At 90% confluence, cells were centrifuged and diluted to a 1:5 ratio with complete RPMI. THP-1 cells were seeded in a 96 well plate at a density of 1 × 10^5 cells/mL with increasing concentrations of D-Bac8c^2,5 Leu. Cells were incubated for 24 h at 37°C with 5% CO2, 95% humidity. […] The absorbance was measured at 595 nm in a microplate spectrophotometer. Cell viability was calculated as a percentage of a control treated with PBS. Two technical replicates were performed each day on three independent days."}, "human red blood cells": {"system": "human red blood cells", "type": "cell-based", "protocol": "Potential haemolytic activity of the peptide was determined using fresh human erythrocytes from healthy donors based on the method described by [Cantisani et al. (2013)]. Human blood was drawn [ethylenediaminetetraacetic acid (EDTA); 1.6 mg/mL], and red blood cells (RBCs) were separated by centrifugation at 1000 x g for 5 min at 18°C. Upon 3 washes with PBS, the RBCs were further diluted 2-fold (v/v) into PBS. D-Bac8c^2,5 Leu was added to erythrocyte suspension at a final concentration ranging from 3.125 to 200 μg/mL in a final volume of 100 μL. Samples were incubated at 37°C for 24 h. The level of haemolysis was assessed by measuring the absorbance of supernatant at 490 nm. Triton-X-100 was used as a positive control for haemolysis."}, "[3]": {"system": "tested strains (SH1000, BH48, USA300, BH1CC, PAO1)", "assay": "In vitro serial passage, induction of resistance", "type": "cell-based, S. aureus and P. aeruginosa", "conditions": "subculturing for 14 days at sub-MIC concentrations", "protocol": "This assay was performed as outlined previously with some modifications ([Ge et al., 1999]; [Mohan et al., 2019]). Briefly, the in vitro serial passage study involved exposing bacteria diluted to 10^4 CFU/mL in cationic adjusted Muller Hinton Broth (Merck, Ireland) to D-Bac8c^2,5 Leu at one-half of the previously established bactericidal concentration. After 90 min of incubation at 37°C, 10 μL was plated in triplicate on MH agar and incubated again overnight. Post-incubation, surviving colonies were harvested, diluted in PBS and re-adjusted to 1 × 10^4 CFU/mL before repeated treatment with the sub-bactericidal concentration. This concentration was determined prior to the initiation of the study and after the 4th, 7th, 11th, and 14th passages. If the concentration after these passages was greater than the original determinate, then at passages […], the amount of peptide used during the bacterial challenge was increased. This was continued over a 14-day course. This assay was performed in independent duplicates."}}, "note": "Non-standard residues stand in square brackets, D forms with d. Residues, ends and D or L forms follow the SMILES beside them.", "data": [{"smiles": "CC(C)C[C@@H](NC(=O)[C@H](N)CCCNC(=N)N)C(=O)N[C@H](Cc1c[nH]c2ccccc12)C(=O)N[C@@H](C(=O)N[C@H](CC(C)C)C(=O)N[C@H](Cc1c[nH]c2ccccc12)C(=O)N[C@H](CCCNC(=N)N)C(=O)N[C@H](CCCNC(=N)N)C(N)=O)C(C)C", "note": "[D-Bac8c^2,5 Leu] (H-[dR][dL][dW][dV][dL][dW][dR][dR]-NH2; N-terminus assumed)", "values": [{"measurement": "reduction in bacterial load compared to untreated controls", "setting": "[1]; static biofilm assays, summed up in abstract", "result": "2–3 log"}, {"measurement": "minimum concentration needed to inactivate biofilms", "setting": "[1]; static biofilms, 6 h treatment (Figures 1, 2 and Table 3)", "result": 64, "unit": "µg/mL"}, {"measurement": "reduction in viability", "setting": "[2]", "result": "≤ 3", "unit": "log"}, {"measurement": "IC50 (50% cell viability), MTT", "setting": "HaCaT", "result": 426.7, "unit": "µg/mL"}, {"measurement": "IC50 (50% cell viability), MTT", "setting": "THP-1", "result": 331.7, "unit": "µg/mL"}, {"measurement": "haemolytic activities", "setting": "human red blood cells", "result": "negligible"}, {"measurement": "development of resistance (change in MIC)", "setting": "[3]", "result": "not accompanied by increased resistance"}]}]}
